Laboratory results from PMC8199124, “Design, Synthesis and In-Vitro Biological Evaluation of Antofine and Tylophorine Prodrugs as Hypoxia-Targeted Anticancer Agents” (Molecules, 2021).
Like-named read-outs stand apart in the source and are kept apart here.

Columns and labels:
[1] = BBB-Parallel Artificial Membrane Permeability Assay (BBB-PAMPA); type: in vitro ADME; details: mean ± SE
Description: The physicochemical properties of the new compounds were evaluated (Table 1). […] Consequently, these derivatives lost their BBB penetrability, as predicted by the BBB-Parallel Artificial Membrane Permeability Assay (BBB-PAMPA), whereas their parent alkaloids had free passage through the BBB.
(§1) Water solubility, logD, and PAMPA-BBB were evaluated using the protocols we previously described.

H460 = test: Cytotoxicity under normoxia and hypoxia (anaerobic chamber, sulphorhodamine B), H460; type: cell-based, human; details: for IC50: Homo sapiens, NCI-H460, 4 h exposure, 5 days growth
Description: (§2) We also checked if the designed prodrugs were able to liberate the active alkaloids in hypoxic tumors by testing them under hypoxic conditions using an anaerobic chamber. The three prodrugs 5a–c and their parent alkaloids as well as the reference compounds PR-104A, the parent alcohol form of the phosphate pre-prodrug PR-104, and evofosfamide were tested using the HCT116 and H460 cell lines under both normoxic and hypoxic conditions (Table 5). The prodrugs were much less cytotoxic than the parent drugs, in agreement with our observations using the other cell lines described above (Figure 6).
(§3) The extent to which a prodrug is deactivated relative to its parent drug under normoxic conditions is defined as the Deactivation Ratio (DR). The DR can be simply calculated as DR = IC50 (prodrug)/IC50 (parent drug).
(§4) The efficacy of prodrug activation under hypoxic conditions can be expressed by the Hypoxia Cytotoxicity Ratio (HCR), which can be calculated for a given prodrug as: HCR = normoxic IC50/hypoxic IC50.
(§5) The eight cell lines HEK293 (Human embryonic kidney 293), CHO-K1 (Chinese hamster ovary K1), MCF-7 cells (Human breast adenocarcinoma), HCT116 (human colorectal carcinoma), RKO (Human rectal carcinoma), SW480 (human colorectal carcinoma), H460 (Human lung cancer), and MRC5 (Normal human foetal lung fibroblast), were obtained from the ATCC. The cell lines were routinely grown in alpha minimum essential medium (α-MEM) containing 5% foetal calf serum (FCS). The appropriate number of cells (HCT116 = 400 cells/well, H460 cells = 600 cells/well) were seeded into 96-well plates under normoxic or hypoxic conditions. Cells were plated in 100 µL α-MEM containing 10% FCS, 10mM D-Glucose and 0.2mM 2′-deoxycytidine. After incubation for 2 h, the compounds were added at the appropriate concentration and incubated for further 4 h. The cells were then washed three times with drug-free α-MEM (containing 5% FCS and pen/strep). The plates were then incubated for 5 days under normoxic conditions. The cells were stained with sulphorhodamine B to measure total cells. The IC50 was determined by interpolation as the compound concentration reducing staining to 50% of controls on the same plate.

LogD determination = type: physicochemical; details: mean ± SE
Description: as §1

RKO = test: Cytotoxicity (MTT) under normoxia, RKO; type: cell-based; details: Homo sapiens, read-out: IC50 RKO
Description: (§6) The cytotoxicity of the compounds 5a–c and their parent alkaloids was evaluated by the 3-[4,5-dimethylthiazole-2-yl]-2,5-diphenyltetrazolium bromide (MTT) assay against 5 cancerous and 2 non-cancerous cell lines (Table 4).
as §5

[2] = Solubility in PBS (pH 7.4); type: physicochemical; details: aqueous buffer, mean ± SE
Description: as §1

HCT116 [3] = test: Cytotoxicity (MTT) under normoxia, HCT116; type: cell-based; details: Homo sapiens, HCT-116, read-out: IC50 HCT116
Description: as §6, §5

in vitro = details: male, Balb/c, mouse, pH 7.4
Description: Mouse hepatic microsomes were isolated from pooled, perfused livers of Balb/c male mice according to the standard protocol. […] Microsomal incubations were carried out in 96-well plates in 5 aliquots of 40 μL each. […] Control incubations were performed by replacing the NADPH-cofactor system with PBS. The additional control incubations in PBS (with 3.3 mM MgCl2) without added microsomes were carried out in this study. […] The incubations were performed in duplicates. Five time points over 40 min had been analyzed. The reactions were stopped by adding 12 volumes of 90% acetonitrile-water to incubation aliquots, followed by protein sedimentation by centrifuging at 5500 rpm for 3 min. The supernatants were analyzed using LC-MS as mentioned above.

HCT116 [4] = test: Cytotoxicity under normoxia and hypoxia (anaerobic chamber, sulphorhodamine B), HCT116; type: cell-based, human; details: for IC50: Homo sapiens, HCT-116, 4 h exposure, 5 days growth
Description: as §2, §3, §4, §5

[5] = Plasma protein binding (PPB); type: in vitro ADME; details: mean ± SE, read-out: PPB (% of Bound Compound) (converted)
Description: The physicochemical properties of the new compounds were evaluated (Table 1).

MRC5 = test: Cytotoxicity (MTT) under normoxia, MRC5; type: cell-based; details: Homo sapiens, MRC5, read-out: IC50 MRC5
Description: as §6, §5

MCF7 = test: Cytotoxicity (MTT) under normoxia, MCF7; type: cell-based; details: Homo sapiens, MCF7, read-out: IC50 MCF7
Description: as §6, §5

HEK293 = test: Cytotoxicity (MTT) under normoxia, HEK293; type: cell-based; details: Homo sapiens, HEK293, read-out: IC50 HEK293
Description: as §6, §5

SW480 = test: Cytotoxicity (MTT) under normoxia, SW480; type: cell-based; details: Homo sapiens, SW480, read-out: IC50 SW480
Description: as §6, §5

CHO-K1 = test: Cytotoxicity (MTT) under normoxia, CHO-K1; type: cell-based, Chinese hamster; details: Cricetulus griseus, CHO-K1, read-out: IC50 CHO-K1
Description: as §6, §5

[6] = Mouse plasma stability test; type: in vitro ADME; details: 37 °C, up to 24 h, read-out: t1/2 (Mouse Plasma) (converted)
Description: (§7) Incubations were carried out in 6 aliquots of 70 μL each in duplicates. […] The reactions were stopped by adding 350 μL of acetonitrile with subsequent plasma proteins sedimentation by centrifuging at 5500 rpm for 5 min. Supernatants were analyzed by LC-MS using Shimadzu VP HPLC system including vacuum degasser, gradient pumps, reverse phase column, column oven and autosampler. The HPLC system was coupled with tandem mass spectrometer API 3000 (PE Sciex, Foster City, CA, USA). Both the positive and negative ion modes of the TurboIonSpray ion source were used. The acquisition and analysis of the data were performed using Analyst 1.5.2 software (PE Sciex, API 3000 mass spectrometer, Foster City, CA, USA). The percentage of the test compounds remaining after incubation in plasma and their half-lives (T1/2) were calculated.

[7] = Human plasma stability test; type: in vitro ADME; details: 37 °C, up to 24 h, read-out: t1/2 (Human Plasma) (converted)
Description: as §7

COc1cc2c3c(c4cc(OC)c(OC)cc4c2cc1OC)C[N+]1(Cc2c([N+](=O)[O-])ncn2C)CCC[C@H]1C3.[Br-] (stereo partly drawn) [Compound 5b, (13aS)-2,3,6,7-tetramethoxy-10-((1-methyl-4-nitro-1H-imidazol-5-yl)methyl)-10,11,12,13,13a,14-hexahydro-9H-dibenzo[f,h]pyrrolo[1,2-b]isoquinolin-10-ium bromide]
Permeability (Papp) [1]: <−7 Log [10^−6 cm/s]
HCR (Hypoxia Cytotoxicity Ratio) (H460): 24
DR (Deactivation Ratio) (H460; H460, normoxia, DR = IC50 (prodrug)/IC50 (parent drug)): 719
IC50 (H460; H460, hypoxia, read-out: IC50 (Hypoxia)): 3.22 ± 1.07 µM
IC50 (H460; H460, normoxia, read-out: IC50 (Normoxia)): 77.6 µM
logD (LogD determination): 0.38 ± 0.04
IC50 (RKO): 4.06 ± 0.181 µM
solubility [2]: 162 ± 3 µM
IC50 (HCT116 [3]): 3.3 ± 1.56 µM
Kel (elimination rate constant) (in vitro; 2 μM): 0.002 ± 0 min⁻¹
metabolized into the parent drug (in vitro; microsomes, 2 μM): less than 1%
half-life at 2 μM (in vitro; microsomes): 6.733 ± 0.0533 h
HCR (Hypoxia Cytotoxicity Ratio) (HCT116 [4]): 11.3
DR (Deactivation Ratio) (HCT116 [4]; HCT116, normoxia, DR = IC50 (prodrug)/IC50 (parent drug)): 689
IC50 (HCT116 [4]; HCT116, hypoxia, read-out: IC50 (Hypoxia)): 1.46 ± 0.411 µM
IC50 (HCT116 [4]; HCT116, normoxia, read-out: IC50 (Normoxia)): 4.49 ± 0.698 µM
fraction unbound [5]: 0.411
IC50 (MRC5): 3.31 ± 0.163 µM
IC50 (MCF7): 1.5 ± 0.128 µM
IC50 (HEK293): 0.95 ± 0.174 µM
melting point: 165 to 167 °C
IC50 (SW480): 7.25 ± 0.49 µM
IC50 (CHO-K1): 3.49 ± 0.843 µM
half-life at 1 μM [6]: 73 ± 1.7 h
half-life at 1 μM [7]: 63.3 ± 0.1 h
